In patent publication US12384808B2, “Modulators of TNF-α activity” (Forward Therapeutics, Inc., priority 2022, dated 2025):

Target: TNFα (Homo sapiens, UniProt P01375)
Experiment: TNFα Induced HEK Blue Cellular Assay
Type: cell-based
Conditions: not given
Description: TNFα Induced HEK Blue Cellular Assay
Test articles were diluted in DMSO and serially diluted into 384 well assay plate (Corning 3765), at final concentrations ranging from […] to 0.5 nM. HEK Blue™ TNFα reporter cells were added at a final density of 10,000 cell per well in assay media [DMEM (Gibco, cat #21063-029), 10% fetal bovine serum (ExcelBio, cat #FND500), 1% Penicillin-Streptomycin (Solarbio, cat #P1400-100]. TNFα (R&D 210-TA-020/CF) was then added to the assay plate at a final concentration of 100 pg/ml. This plate was then incubated for 24 hrs at 37° C. and 5% CO2. Secreted alkaline phosphatase expression was then measured using QUANTI-Blue™ (Invivogen), according to manufacturer instructions and read on an Envision microplate reader at 620 nm.
Inhibition data for test compound over a range of concentration was plotted as percentage inhibition of the test compound (100%=maximum inhibition). IC50 values were determined after correcting for background [(sample read−mean of low control)/(mean of high control−mean of low control)] where by the low control is DMSO without stimulation and high control is DMSO with stimulation. The IC50 is defined as the concentration of test compound which produces 50% inhibition and was quantified using the 4 parameter logistic equation to fit the data.

Chain of TNFα (P01375 77-233 limits assumed): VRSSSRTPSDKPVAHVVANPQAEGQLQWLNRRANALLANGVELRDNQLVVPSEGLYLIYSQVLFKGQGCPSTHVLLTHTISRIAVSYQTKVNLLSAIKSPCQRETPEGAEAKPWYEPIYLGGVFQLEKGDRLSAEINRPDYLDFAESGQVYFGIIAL

| SMILES | IC50 [nM] |
| --- | --- |
| [2H]C([2H])([2H])N1C(=O)c2cccc(OC(F)F)c2[C@H]2C[C@@H]1c1nc3ccc(-c4ccc(CP(=O)(OC)OC)cc4)cc3n12 [Example 83, dimethyl (4-((7R,14R)-1-(difluoromethoxy)-6-(methyl-d3)-5-oxo-5,6,7,14-tetrahydro-7,14-methanobenzo[f]benzo[4,5]imidazo[1,2-a][1,4]diazocin-11-yl)benzyl)phosphonate] | < 100 |

Same assay, conditions: HEK Blue TNFα reporter cells, TNFα 100 pg/ml, 24 hrs at 37° C., secreted alkaline phosphatase (QUANTI-Blue) read at 620 nm; read-out: IC50 value

| IC50 [nM] | SMILES |
| --- | --- |
| < 100 | CN1C(=O)c2cccc(OC(F)F)c2[C@H]2C[C@@H]1c1nc3ccc(-c4c(F)cc(P(C)(C)=O)cc4F)cc3n12 [Example 62, (1R,11R)-18-(difluoromethoxy)-5-[4-(dimethylphosphoryl)-2,6-difluorophenyl]-12-methyl-2,9,12-triazapentacyclo[9.8.1.0^{2,10}.0^{3,8}.0^{14,19}]icosa-3(8),4,6,9,14(19),15,17-heptaen-13-one] |
| < 100 | CN1C(=O)c2cccc(OC(F)F)c2[C@H]2C[C@@H]1c1nc3ccc(-c4cnc(OCP(C)(C)=O)s4)cc3n12 [Example 25, (1R,11R)-18-(difluoromethoxy)-5-{2-[(dimethylphosphoryl)methoxy]-1,3-thiazol-5-yl}-12-methyl-2,9,12-triazapentacyclo[9.8.1.0^{2,10}.0^{3,8}.0^{14,19}]icosa-3(8),4,6,9,14(19),15,17-heptaen-13-one] |
| < 100 | [2H]C([2H])([2H])N1C(=O)c2cccc(OC(F)F)c2[C@H]2C[C@@H]1c1nc3ccc(-c4cc(F)c(C(C)P(C)(C)=O)cc4C)cc3n12 (single isomer, unassigned) [Example 118, (7R,14R)-1-(difluoromethoxy)-11-(4-((R or S)-1-(dimethylphosphoryl)ethyl)-5-fluoro-2-methylphenyl)-6-(methyl-d3)-6,7-dihydro-7,14-methanobenzo[f]benzo[4,5]imidazo[1,2-a][1,4]diazocin-5(14H)-one] |
| < 100 | CN1C(=O)c2cccc(OC(F)F)c2[C@H]2C[C@@H]1c1nc3ccc(-c4ccc(CP(C)(C)=O)cc4F)cc3n12 [Example 80, (7R,14R)-1-(difluoromethoxy)-11-(4-((dimethylphosphoryl)methyl)-2-fluorophenyl)-6-methyl-6,7-dihydro-7,14-methanobenzo[f]benzo[4,5]imidazo[1,2-a][1,4]diazocin-5(14H)-one] |
| < 100 | [2H]C([2H])([2H])N1C(=O)c2cccc(OC(F)F)c2[C@H]2C[C@@H]1c1nc3ccc(-c4c(F)cc(P(C)(C)=O)cc4F)cc3n12 [Example 63, (7R,14R)-1-(difluoromethoxy)-11-(4-(dimethylphosphoryl)-2,6-difluorophenyl)-6-(methyl-d3)-6,7-dihydro-7,14-methanobenzo[f]benzo[4,5]imidazo[1,2-a][1,4]diazocin-5(14H)-one] |
| 100 to 1000 | CN1C(=O)c2cccc(OC(F)F)c2[C@H]2C[C@@H]1c1nc3ccc(-c4cnn(CP(C)(C)=O)c4)cc3n12 [Example 21, (1R,11R)-18-(difluoromethoxy)-5-{1-[(dimethylphosphoryl)methyl]pyrazol-4-yl}-12-methyl-2,9,12-triazapentacyclo[9.8.1.0^{2,10}.0^{3,8}.0^{14,19}]icosa-3(8),4,6,9,14(19),15,17-heptaen-13-one] |
| 100 to 1000 | CN1C(=O)c2cccc(OC(F)F)c2[C@H]2C[C@@H]1c1nc3ccc(-c4ccc(OCCCP(C)(C)=O)nc4)cc3n12 [Example 40, (1R,11R)-18-(difluoromethoxy)-5-{6-[3-(dimethylphosphoryl)propoxy]pyridin-3-yl}-12-methyl-2,9,12-triazapentacyclo[9.8.1.0^{2,10}.0^{3,8}.0^{14,19}]icosa-3(8),4,6,9,14(19),15,17-heptaen-13-one] |
| < 100 | [2H]C([2H])([2H])N1C(=O)c2cccc(OC(F)F)c2[C@H]2C[C@@H]1c1nc3ccc(-c4ccc(P(C)(C)=O)c(F)c4F)cc3n12 [Example 52, (7R,14R)-1-(difluoromethoxy)-11-(4-(dimethylphosphoryl)-2,3-difluorophenyl)-6-(methyl-d3)-6,7-dihydro-7,14-methanobenzo[f]benzo[4,5]imidazo[1,2-a][1,4]diazocin-5(14H)-one] |
| < 100 | [2H]C([2H])([2H])N1C(=O)c2cccc(OC(F)F)c2[C@H]2C[C@@H]1c1nc3ccc(-c4cc(F)c(CP(C)(C)=O)cc4C)cc3n12 [Example 108, (7R,14R)-1-(difluoromethoxy)-11-(4-((dimethylphosphoryl)methyl)-5-fluoro-2-methylphenyl)-6-(methyl-d3)-6,7-dihydro-7,14-methanobenzo[f]benzo[4,5]imidazo[1,2-a][1,4]diazocin-5(14H)-one] |
| < 100 | CCN1C(=O)c2cccc(OC(F)F)c2[C@H]2C[C@@H]1c1nc3ccc(-c4ccc(P(C)(C)=O)nc4)cc3n12 [Example 19, (1R,11R)-18-(difluoromethoxy)-5-[6-(dimethylphosphoryl)pyridin-3-yl]-12-ethyl-2,9,12-triazapentacyclo[9.8.1.0^{2,10}.0^{3,8}.0^{14,19}]icosa-3(8),4,6,9,14(19),15,17-heptaen-13-one] |
| < 100 | CCN1C(=O)c2cccc(OC(F)F)c2[C@H]2C[C@@H]1c1nc3ccc(-c4ccc(OCP(C)(C)=O)cc4)cc3n12 [Example 44, (1R,11R)-18-(difluoromethoxy)-5-{4-[(dimethylphosphoryl)methoxy]phenyl}-12-ethyl-2,9,12-triazapentacyclo[9.8.1.0^{2,10}.0^{3,8}.0^{14,19}]icosa-3(8),4,6,9,14(19),15,17-heptaen-13-one] |
| < 100 | CN1C(=O)c2cccc(OC(F)F)c2[C@H]2C[C@@H]1c1nc3ccc(-c4ccc(P(C)(C)=O)cc4F)cc3n12 [Example 28, (1R,11R)-18-(difluoromethoxy)-5-[4-(dimethylphosphoryl)-2-fluorophenyl]-12-methyl-2,9,12-triazapentacyclo[9.8.1.0^{2,10}.0^{3,8}.0^{14,19}]icosa-3(8),4,6,9,14(19),15,17-heptaen-13-one] |
| 100 to 1000 | CP(C)(=O)c1ccc(-c2ccc3nc4n(c3c2)[C@@H]2C[C@H]4NC(=O)c3cccc(OC(F)F)c32)cn1 [Example 3, (7R,14R)-1-(difluoromethoxy)-11-(6-(dimethylphosphoryl)pyridin-3-yl)-6,7-dihydro-7,14-methanobenzo[f]benzo[4,5]imidazo[1,2-a][1,4]diazocin-5(14H)-one] |
| 100 to 1000 | [2H]C([2H])([2H])N1C(=O)c2cccc(OC)c2[C@H]2C[C@@H]1c1nc3ccc(-c4cc(F)c(P(C)(C)=O)cc4F)cc3n12 [Example 74, (7R,14R)-11-(4-(dimethylphosphoryl)-2,5-difluorophenyl)-1-methoxy-6-(methyl-d3)-6,7-dihydro-7,14-methanobenzo[f]benzo[4,5]imidazo[1,2-a][1,4]diazocin-5(14H)-one] |
| < 100 | [2H]C([2H])([2H])N1C(=O)c2cccc(OC(F)F)c2[C@H]2C[C@@H]1c1nc3ccc(-c4ccc([C@H](C)P(C)(C)=O)c(F)c4C)cc3n12 (single isomer, unassigned) [Example 114, (7R,14R)-1-(difluoromethoxy)-11-(4-((S or R)-1-(dimethylphosphoryl)ethyl)-3-fluoro-2-methylphenyl)-6-(methyl-d3)-6,7-dihydro-7,14-methanobenzo[f]benzo[4,5]imidazo[1,2-a][1,4]diazocin-5(14H)-one] |
| < 100 | [2H]C([2H])([2H])N1C(=O)c2cccc(OC(F)F)c2[C@H]2C[C@@H]1c1nc3ccc(-c4ccc(P(C)(C)=O)nc4C)cc3n12 [Example 91, (7R,14R)-1-(difluoromethoxy)-11-(6-(dimethylphosphoryl)-2-methylpyridin-3-yl)-6-(methyl-d3)-6,7-dihydro-7,14-methanobenzo[f]benzo[4,5]imidazo[1,2-a][1,4]diazocin-5(14H)-one] |
| < 100 | [2H]C([2H])([2H])N1C(=O)c2cccc(OC(F)F)c2[C@H]2C[C@@H]1c1nc3ccc(-c4ccc(C(C)P(C)(C)=O)nc4)cc3n12 (stereo partly drawn) [Example 116, (7R,14R)-1-(difluoromethoxy)-11-(6-(1-(dimethylphosphoryl)ethyl)pyridin-3-yl)-6-(methyl-d3)-6,7-dihydro-7,14-methanobenzo[f]benzo[4,5]imidazo[1,2-a][1,4]diazocin-5(14H)-one] |
| < 100 | CN1C(=O)c2cccc(OC(F)F)c2[C@H]2C[C@@H]1c1nc3ccc(-c4ccc(OCP(C)(C)=O)nc4)cc3n12 [Example 7, (1R,11R)-18-(difluoromethoxy)-5-{6-[(dimethylphosphoryl)methoxy]pyridin-3-yl}-12-methyl-2,9,12-triazapentacyclo[9.8.1.0^{2,10}.0^{3,8}.0^{14,19}]icosa-3(8),4,6,9,14(19),15,17-heptaen-13-one] |
| < 100 | CN1C(=O)c2cccc(OC(F)F)c2[C@H]2C[C@@H]1c1nc3ccc(-c4cc(F)c(P(C)(C)=O)c(F)c4)cc3n12 [Example 37, (1R,11R)-18-(difluoromethoxy)-5-[4-(dimethylphosphoryl)-3,5-difluorophenyl]-12-methyl-2,9,12-triazapentacyclo[9.8.1.0^{2,10}.0^{3,8}.0^{14,19}]icosa-3(8),4,6,9,14(19),15,17-heptaen-13-one] |
